Measurements: PubChem BioAssay AID1963856 (Molecular Pharmacology Branch, DTP, NCI, 2024)

Tested on: LG0567-F671-PDC KRAS tumor spheroid viability
Test: Anticancer human tumor LG0567-F671-PDC patient-derived lung adenocarcinoma cell line growth inhibition [KRAS2]
Details: spheroids with HUVEC and MSC; for IC50: curve of first compound; for viability, T/C: stronger effect = lower value
How it was run: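 KRAS-mutant tumor cells were grown as spheroids with HUVEC endothelial cells and human MSCs as stroma. Targeted agents were tested alone and with KRAS pathway inhibitors. Doses started at or near clinical Cmax, or 10 microM, descending half-log.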

[1] = second compound 0.0316 µM, first compound 0.0316 µM
[2] = second compound 0.0316 µM, first compound 0.1 µM
[3] = second compound 0.0316 µM, first compound 0.316 µM
[4] = second compound 0.0316 µM, first compound 1 µM
[5] = second compound 0.0316 µM, first compound 3.16 µM
[6] = second compound 0.0316 µM, first compound 10 µM
[7] = second compound 0.1 µM, first compound 0.0316 µM
[8] = second compound 0.1 µM, first compound 0.1 µM
[9] = second compound 0.1 µM, first compound 0.316 µM
[10] = second compound 0.1 µM, first compound 1 µM
[11] = second compound 0.1 µM, first compound 3.16 µM
[12] = second compound 0.1 µM, first compound 10 µM
[13] = second compound 0.316 µM, first compound 0.0316 µM
[14] = second compound 0.316 µM, first compound 0.1 µM
[15] = second compound 0.316 µM, first compound 0.316 µM
[16] = second compound 0.316 µM, first compound 1 µM
[17] = second compound 0.316 µM, first compound 3.16 µM
[18] = second compound 0.316 µM, first compound 10 µM
[19] = second compound 1 µM, first compound 0.0316 µM
[20] = second compound 1 µM, first compound 0.1 µM
[21] = second compound 1 µM, first compound 0.316 µM
[22] = second compound 1 µM, first compound 1 µM
[23] = second compound 1 µM, first compound 3.16 µM
[24] = second compound 1 µM, first compound 10 µM
[25] = second compound 3.16 µM, first compound 0.0316 µM
[26] = second compound 3.16 µM, first compound 0.1 µM
[27] = second compound 3.16 µM, first compound 0.316 µM
[28] = second compound 3.16 µM, first compound 1 µM
[29] = second compound 3.16 µM, first compound 3.16 µM
[30] = second compound 3.16 µM, first compound 10 µM
[31] = second compound 0.0316 µM, first compound 0.00316 µM
[32] = second compound 0.0316 µM, first compound 0.01 µM
[33] = second compound 0.1 µM, first compound 0.00316 µM
[34] = second compound 0.1 µM, first compound 0.01 µM
[35] = second compound 0.316 µM, first compound 0.00316 µM
[36] = second compound 0.316 µM, first compound 0.01 µM
[37] = second compound 1 µM, first compound 0.00316 µM
[38] = second compound 1 µM, first compound 0.01 µM
[39] = second compound 3.16 µM, first compound 0.00316 µM
[40] = second compound 3.16 µM, first compound 0.01 µM
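Further: drug exposure lasted seven days after spheroids formed for three days.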
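Wherever viability, T/C is given: 100% = DMSO vehicle control viability.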

Row | SMILES | IC50 (second compound 0.0316 µM) [nM] | IC50 (second compound 0.1 µM) [nM] | IC50 (second compound 0.316 µM) [nM] | IC50 (second compound 1 µM) [nM] | IC50 (second compound 3.16 µM) [nM] | viability, T/C [1] [%] | viability, T/C [2] [%] | viability, T/C [3] [%] | viability, T/C [4] [%] | viability, T/C [7] [%] | viability, T/C [8] [%] | viability, T/C [9] [%] | viability, T/C [10] [%] | viability, T/C [13] [%] | viability, T/C [14] [%] | viability, T/C [15] [%] | viability, T/C [19] [%] | viability, T/C [20] [%] | viability, T/C [25] [%] | viability, T/C [26] [%] | further results
1 | CC(C)NCC(C(=O)N1CCN(c2ncnc3c2C(C)CC3O)CC1)c1ccc(Cl)cc1 (stereo not given) + C=CC(=O)N1CCN(c2nc(OCC3CCCN3C)nc3c2CCN(c2cccc4cccc(C)c24)C3)CC1CC#N | < 31.6 | < 31.6 | < 31.6 | < 31.6 | < 31.6 | 36 | 33.7 | 24.6 | 22.8 | 28.5 | 27.5 | 18.6 | 20.1 | 33.9 | 29.3 | 21 | 38.6 | 32.3 | 8.92 | 7.61 | viability, T/C [5]: 22.4%; viability, T/C [6]: 19.8%; viability, T/C [11]: 17%; viability, T/C [12]: 13.4%; viability, T/C [16]: 19.5%; viability, T/C [17]: 18.6%; viability, T/C [18]: 15.4%; viability, T/C [21]: 24.6%; viability, T/C [22]: 18.2%; viability, T/C [23]: 15.3%; viability, T/C [24]: 13.3%; viability, T/C [27]: 4.92%; viability, T/C [28]: 2.79%; viability, T/C [29]: 3.43%; viability, T/C [30]: 0.37%
2 | CC1(C)CCC(CN2CCN(c3ccc(C(=O)NS(=O)(=O)c4ccc(NCC5CCOCC5)c([N+](=O)[O-])c4)c(Oc4cnc5[nH]ccc5c4)c3)CC2)=C(c2ccc(Cl)cc2)C1 + C=CC(=O)N1CCN(c2nc(OCC3CCCN3C)nc3c2CCN(c2cccc4cccc(C)c24)C3)CC1CC#N | < 31.6 | < 31.6 | < 31.6 | < 31.6 | < 31.6 | 31.1 | 37.4 | 35 | 39.5 | 30.2 | 36.3 | 29.7 | 28.7 | 34 | 32.6 | 32 | 34.2 | 33.5 | 21.8 | 16.1 | viability, T/C [5]: 12.7%; viability, T/C [6]: 5.63%; viability, T/C [11]: 10.7%; viability, T/C [12]: 5.62%; viability, T/C [16]: 27.7%; viability, T/C [17]: 6.23%; viability, T/C [18]: 2.16%; viability, T/C [21]: 33.4%; viability, T/C [22]: 31.9%; viability, T/C [23]: 2.97%; viability, T/C [24]: 0.47%; viability, T/C [27]: 8.41%; viability, T/C [28]: 0.74%; viability, T/C [29]: 0.13%; viability, T/C [30]: 0.89%
3 | CCN1CCN(Cc2ccc(Nc3ncc(F)c(-c4cc(F)c5nc(C)n(C(C)C)c5c4)n3)nc2)CC1 + C=CC(=O)N1CCN(c2nc(OCC3CCCN3C)nc3c2CCN(c2cccc4cccc(C)c24)C3)CC1CC#N | < 3.16 | < 3.16 | < 3.16 | < 3.16 | < 3.16 | 22.2 | 26.6 | 27.6 | 31.4 | 18.6 | 20 | 22.1 | 25.3 | 16.7 | 22.5 | 23.7 | 22.1 | 21.8 | 25.6 | 29 | viability, T/C [31]: 36.1%; viability, T/C [32]: 32.4%; viability, T/C [33]: 32.8%; viability, T/C [34]: 24.7%; viability, T/C [35]: 23.9%; viability, T/C [36]: 25.3%; viability, T/C [16]: 27.7%; viability, T/C [37]: 27.7%; viability, T/C [38]: 20.6%; viability, T/C [21]: 26%; viability, T/C [22]: 33.5%; viability, T/C [39]: 28%; viability, T/C [40]: 30.7%; viability, T/C [27]: 31.4%; viability, T/C [28]: 29.4%
4 | CCNC(=O)CC1N=C(c2ccc(Cl)cc2)c2cc(OC)ccc2-n2c(C)nnc21 (stereo not given) + C=CC(=O)N1CCN(c2nc(OCC3CCCN3C)nc3c2CCN(c2cccc4cccc(C)c24)C3)CC1CC#N | 51.2 | < 31.6 | 2000 | < 31.6 | < 31.6 | 48.4 | 52.5 | 36.7 | 25.7 | 46.5 | 41.5 | 25.6 | 19.4 | 99.2 | 109 | 72.8 | 35.7 | 32.3 | 41.3 | 32.7 | viability, T/C [5]: 17.2%; viability, T/C [6]: 16.6%; viability, T/C [11]: 15.3%; viability, T/C [12]: 12.9%; viability, T/C [16]: 60.9%; viability, T/C [17]: 46.8%; viability, T/C [18]: 40.2%; viability, T/C [21]: 24.6%; viability, T/C [22]: 17.5%; viability, T/C [23]: 14.6%; viability, T/C [24]: 12.8%; viability, T/C [27]: 22.6%; viability, T/C [28]: 13.3%; viability, T/C [29]: 9.07%; viability, T/C [30]: 7.07%
5 | Cn1ncnc1[C@H]1c2n[nH]c(=O)c3cc(F)cc(c23)N[C@@H]1c1ccc(F)cc1 + C=CC(=O)N1CCN(c2nc(OCC3CCCN3C)nc3c2CCN(c2cccc4cccc(C)c24)C3)CC1CC#N | < 0.316 | < 0.316 | < 0.316 | < 0.316 | < 0.316 | 32 | 29.4 |  |  | 27.6 | 27.9 |  |  | 29.6 | 30.8 |  | 26.1 | 24.9 | 10.8 | 9.1 | viability, T/C (second compound 0.0316 µM, first compound 0.000316 µM): 44.2%; viability, T/C (second compound 0.0316 µM, first compound 0.001 µM): 41.6%; viability, T/C [31]: 36.3%; viability, T/C [32]: 35.6%; viability, T/C (second compound 0.1 µM, first compound 0.000316 µM): 34%; viability, T/C (second compound 0.1 µM, first compound 0.001 µM): 28.7%; viability, T/C [33]: 37.9%; viability, T/C [34]: 27.4%; viability, T/C (second compound 0.316 µM, first compound 0.000316 µM): 34%; viability, T/C (second compound 0.316 µM, first compound 0.001 µM): 35.5%; viability, T/C [35]: 25.3%; viability, T/C [36]: 25.8%; viability, T/C (second compound 1 µM, first compound 0.000316 µM): 41.2%; viability, T/C (second compound 1 µM, first compound 0.001 µM): 32.9%; viability, T/C [37]: 35.3%; viability, T/C [38]: 26.7%; viability, T/C (second compound 3.16 µM, first compound 0.000316 µM): 14.8%; viability, T/C (second compound 3.16 µM, first compound 0.001 µM): 16.5%; viability, T/C [39]: 15.4%; viability, T/C [40]: 16.1%
